Measured values: patent publication US20220088010A1, “Co-Administration of inhibitors to produce insulin producing gut cells” (The Trustees of Columbia University in the City of New York, priority 2019, published 2022)
Entries after “also recorded” stand apart in the source; their conditions may differ.

Key:
[1] = tested on: intestine enteroendocrine cells; experiment: Initial DBZ i.p. followed by FBT9 via enterojejunal catheter (24 hrs after DBZ); intestine analyzed for enteroendocrine cell content by immunohistochemistry; format: in vivo, mouse; details: FBT9 from 24 hrs later
Experimental: The experiment consisted of performing surgery on 8-week-old mice to implant an enterojejujnal catheter to deliver drugs locally to the intestinal mucosa. After a 1-week recovery period, mice were treated with a single i.p. injection of DBZ or vehicle control. Administration of Foxo1 inhibitor compound 9 (Langlet et al. 2017 Cell, see below)
(§1) was initiated either on the same day or on the following day, t.i.d. by injection via enterojejunal catheter for 3 days. At the end of the experiment, mice were sacrificed and the intestine analyzed for enteroendocrine cell content using immunohistochemistry. […] The treatment regime of FIG. 10 involved administering the first dose of FBT9 with DBZ followed by subsequent doses of FBT9.

[2] = tested on: intestine enteroendocrine cells of Foxo1 heterozygous knockouts; experiment: Co-treatment: DBZ with first dose of FBT9, then FBT9 3 days TID; intestine immunohistochemistry; format: in vivo, mouse; details: DBZ alone or FBT9 x3 days TID alone (FIG. 9)
Experimental: FIG. 8 provides graphs showing the effect of co-treatment of FBT9 and DBZ (DBZ administered in conjunction with first dose of FBT9 followed by sequential administration of FBT9 3 days TID) on body weight and plasma glucose in Foxo1 heterozygous knockouts.
The experiment consisted of performing surgery on 8-week-old mice to implant an enterojejujnal catheter to deliver drugs locally to the intestinal mucosa. After a 1-week recovery period, mice were treated with a single i.p. injection of DBZ or vehicle control.
as §1

Gut Ins+ cells = experiment: Insulin secretion by Gut Ins+ cells, block by diazoxide
[3] = tested on: gut cells of Foxo1 knockout mice; experiment: Oral gavage of ROCK inhibitor Y-27632 in Foxo1 knockout mice; intestine immunohistochemistry; format: in vivo, mouse; details: for number of insulin-positive cells in Foxo1 knockout mice not treated with ROCKi relative to those treated: Y-27632 oral gavage q.d. 2 days, FIG. 17, dihydrochloride
Source text: The experiment consisted of treating 8-week-old mice (Foxo1 knockout mice) by oral gavage dosing of Y-27632, q.d., for 2 days. On day 3, mice were sacrificed and the intestine analyzed for enteroendocrine cell content using immunohistochemistry. The arrows in FIGS. 15 and 16 represent c-peptide and insulin-positive cells, which resemble true beta-like cells.

[4] = tested on: Mouse gut organoid from a wild type mouse; experiment: FBT10 treatment of mouse gut organoid, immunohistochemistry; format: cell-based; details: after 72 hrs of treatment; FIG. 18
Experimental: Mouse gut organoid from a wild type mouse was treated with FBT10 (Compound 10, Langlet et al. 2017 Cell, see below).

[5] = tested on: intestine enteroendocrine cells; experiment: Co-administration of FBT10 (enterojejunal catheter) and DBZ (i.p.) in mice; intestine immunohistochemistry; format: in vivo, mouse; details: FBT10 t.i.d. 3 days with single i.p. DBZ; FIG. 19
Experimental: The protocol used above in Example 1 was followed for testing a combination of FBT10 and DBZ. The experiment consisted of performing surgery on 8-week-old mice to implant an enterojejujnal catheter to deliver drugs locally to the intestinal mucosa. After a 1-week recovery period, mice were treated with a single i.p. injection of DBZ or vehicle control. Administration of Foxo1 inhibitor compound 10 (FBT10) was initiated either on the same day or on the following day, t.i.d. by injection via enterojejunal catheter for 3 days. At the end of the experiment, mice were sacrificed and the intestine analyzed for enteroendocrine cell content using immunohistochemistry. Regarding the graphs indicating effects on Body weight and blood glucose, each line represents an individual animal. […] No insulin-positive cells were found in vehicle treated duodenum or colon.

gut cells of NOD mice = experiment: FBT10 in NOD mice over 96 hr; gut micrographs; format: in vivo, mouse; details: 96 hr period, FIG. 20
Experimental: NOD mice (mouse model whose pancreatic beta cells are destroyed by immunological response) were treated with FBT10 or vehicle over a 96 hr period. […] Insulin-positive cells were not detected in the colon. FIG. 20 also provides graphs showing effects on body weight and blood glucose (each graph line represents an individual animal)

C[C@H](NC(=O)Cc1cc(F)cc(F)c1)C(=O)N[C@@H]1C(=O)N(C)c2ccccc2-c2ccccc21 [DBZ]
number of Serotonin (5HT)-positive cells [1]: increased | number of Somatostatin-positive cells [1]: increased | number of Glp1-positive cells ([1]; duodenum and jejunum): increased | ins+ cells after individual treatment [2]: neither which produced ins+ cells

CC1=NS(=O)(=O)c2cc(Cl)ccc2N1 [diazoxide]
insulin secretion / release by Gut Ins+ cells (Gut Ins+ cells): can be blocked; also recorded: can be shut off

COc1ccc(C(=O)Nc2cc(-c3nc4ccccc4[nH]3)n[nH]2)cc1Cl [FBT9, N-(3-(1H-benzo[d]imidazole-2-yl)-1H-pyrazol-5-yl)-3-chloro-4-methoxybenzamide]
ins+ cells after individual treatment [2]: neither which produced ins+ cells

C[C@@H](N)[C@H]1CC[C@H](C(=O)Nc2ccncc2)CC1.Cl.Cl [Y27632, (+)-(R)-trans-4-(1-aminoethyl)-N-(4-pyridyl)cyclohexanecarboxamide dihydrochloride]
Epcam counterstain of insulin-positive cells ([3]; Foxo1 knockout mice treated with ROCKi, FIG. 16): insulin-positive cells are epithelial | number of insulin-positive cells in Foxo1 knockout mice not treated with ROCKi relative to those treated ([3]; listed as ROCK inhibitor): decreases dramatically | number of insulin-positive cells in Foxo1 knockout mice not treated with ROCKi relative to those treated ([3]; listed as ROCKi): significantly lower | C-peptide staining of Ins+ cells in the gut ([3]; homozygous Foxo1 knockout mice, FIG. 15): positive for C-peptide

CN1CCN(c2ccc(C(=O)Nc3cc(-c4nc5ccccc5[nH]4)n[nH]3)cc2)CC1 [FBT10, N-(3-(1H-benzo[d]imidazol-2-yl)-1H-pyrazol-5-yl)-4-(4-methylpiperazin-1-yl)benzamide]
insulin and serotonin (5HT) positive cells [4]: some of the cells turned into insulin and serotonin (5HT) positive cells | insulin-positive cells in duodenum and colon [5]: present in the duodenum and colon | insulin-positive cells in the colon (gut cells of NOD mice): not detected | insulin-positive cells in the jejunum (gut cells of NOD mice): generated insulin-positive cells
